Laboratory results reported in publication PMC7432833, “Unusual Occurrence of Two Bona-Fide CCA-Adding Enzymes in Dictyostelium discoideum” (International Journal of Molecular Sciences, 2020).

Columns and labels:
[1] = test system: T1, CCA2 (tRNA nucleotidyltransferase 2, Q/N-rich) (Dictyostelium discoideum); assay: EMSA; conditions: 6 mM Mg2+, EMSA: HEPES/KOH pH 7.6 (concentration not stated), 30 mM KCl, 6 mM MgCl2, 20 C, 10 min, 0.5 pmol tRNA, 0-5 uM enzyme, 5% native PAA gel, n=3
T1 sequence: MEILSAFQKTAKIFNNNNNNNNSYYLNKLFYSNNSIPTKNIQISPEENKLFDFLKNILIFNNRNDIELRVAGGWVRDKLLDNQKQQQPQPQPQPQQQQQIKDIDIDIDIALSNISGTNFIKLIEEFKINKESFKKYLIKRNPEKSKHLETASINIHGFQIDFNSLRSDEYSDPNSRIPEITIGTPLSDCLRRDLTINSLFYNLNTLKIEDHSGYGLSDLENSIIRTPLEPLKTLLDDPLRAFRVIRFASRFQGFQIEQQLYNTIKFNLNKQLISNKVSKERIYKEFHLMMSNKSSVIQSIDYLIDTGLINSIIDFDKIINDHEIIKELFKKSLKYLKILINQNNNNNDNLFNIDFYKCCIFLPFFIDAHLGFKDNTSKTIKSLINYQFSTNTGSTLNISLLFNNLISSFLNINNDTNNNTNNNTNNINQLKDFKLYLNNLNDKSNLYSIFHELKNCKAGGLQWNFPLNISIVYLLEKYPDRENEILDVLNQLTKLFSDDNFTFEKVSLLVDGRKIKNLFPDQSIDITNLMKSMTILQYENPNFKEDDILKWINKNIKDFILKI

[2] = target: T2, CCA1 (Dictyostelium discoideum, UniProt Q54BQ2); assay: nucleotide binding assay (supplement)
T2 construct: gene DDB_G0293504; full-length codon-optimized ORF, C-terminal His tag, pET28b(+), E. coli BL21(DE3) delta-cca
T2 sequence (Q54BQ2 1-558): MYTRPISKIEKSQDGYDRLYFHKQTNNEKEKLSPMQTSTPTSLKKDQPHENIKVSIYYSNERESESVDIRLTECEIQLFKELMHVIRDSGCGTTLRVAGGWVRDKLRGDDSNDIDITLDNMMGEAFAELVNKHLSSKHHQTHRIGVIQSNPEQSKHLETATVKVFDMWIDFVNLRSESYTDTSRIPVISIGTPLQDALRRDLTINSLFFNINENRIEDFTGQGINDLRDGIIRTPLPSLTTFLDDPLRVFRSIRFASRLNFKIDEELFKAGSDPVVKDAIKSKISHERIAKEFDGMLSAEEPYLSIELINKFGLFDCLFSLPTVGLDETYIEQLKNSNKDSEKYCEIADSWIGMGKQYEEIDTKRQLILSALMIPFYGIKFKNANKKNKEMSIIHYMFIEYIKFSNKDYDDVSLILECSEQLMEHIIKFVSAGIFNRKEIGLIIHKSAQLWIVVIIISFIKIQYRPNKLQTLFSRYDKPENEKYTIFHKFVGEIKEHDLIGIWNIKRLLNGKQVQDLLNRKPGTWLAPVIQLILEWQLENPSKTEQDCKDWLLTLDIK

[3] = target: T3, CCA2 (Dictyostelium discoideum, UniProt Q55BE1); assay: nucleotide binding assay (supplement)
T3 construct: gene DDB_G0271378; full-length codon-optimized ORF, C-terminal His tag, pET28b(+), E. coli BL21(DE3) delta-cca; Q/N-rich
T3 sequence (Q55BE1 1-542): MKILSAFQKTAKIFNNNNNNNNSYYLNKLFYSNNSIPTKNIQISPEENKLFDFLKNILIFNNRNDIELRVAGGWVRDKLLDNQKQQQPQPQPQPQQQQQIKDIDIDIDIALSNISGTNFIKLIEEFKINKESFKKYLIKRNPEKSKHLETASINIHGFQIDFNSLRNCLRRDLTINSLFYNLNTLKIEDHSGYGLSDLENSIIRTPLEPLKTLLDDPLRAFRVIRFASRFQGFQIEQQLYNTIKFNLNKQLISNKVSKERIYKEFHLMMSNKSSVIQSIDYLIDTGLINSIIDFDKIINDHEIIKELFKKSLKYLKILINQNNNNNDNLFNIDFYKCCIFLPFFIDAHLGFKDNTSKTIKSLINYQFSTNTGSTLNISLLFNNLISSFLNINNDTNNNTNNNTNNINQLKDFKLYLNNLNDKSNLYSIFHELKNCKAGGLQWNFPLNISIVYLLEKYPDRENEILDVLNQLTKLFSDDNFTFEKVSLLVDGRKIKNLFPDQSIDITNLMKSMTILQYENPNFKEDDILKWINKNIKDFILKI

Compound | Kd ([1]; tRNA pool, native tRNA modifications (isolated from cells)) [nM] | nucleotide binding assay (supplement) [2] | nucleotide binding assay (supplement) [3] | Kd [1] [nM]
total in vivo tRNA-CC pool | 1700 | – | – | –
Nc1ccn([C@@H]2O[C@H](COP(=O)(O)OP(=O)(O)OP(=O)(O)O)[C@@H](O)[C@H]2O)c(=O)n1 [CTP] | – | when incubated with CTP or ATP alone, both enzymes showed an almost identical binding behavior | when incubated with CTP or ATP alone, both enzymes showed an almost identical binding behavior | –
Nc1ncnc2c1ncn2[C@@H]1O[C@H](COP(=O)(O)OP(=O)(O)OP(=O)(O)O)[C@@H](O)[C@H]1O [ATP] | – | when incubated with CTP or ATP alone, both enzymes showed an almost identical binding behavior | when incubated with CTP or ATP alone, both enzymes showed an almost identical binding behavior | –
tRNAPhe-CC in vitro transcript (yeast per Fig. 5 legend) | – | – | – | 2300
